Values quoted from earlier work, collected in patent publication US20050181001A1, “Topical formulation for insect repellents” (priority 2003, published 2005).

Assays:
mosquitoes [1] = test system: mosquitoes
mosquitoes [2] = settings: oral

SMILES | effectiveness at repelling mosquitoes relative to DEET (mosquitoes [1]) | time before the odor fully saturates the skin and becomes effective (mosquitoes [2]) | reduction of mosquito bites (mosquitoes [2]; 25 to 50 mg three times per day)
CC1=COC(=O)C2C(C)CCC12 (stereo not drawn) [nepetalactone] | more effective at repelling mosquitoes than DEET | – | –
Cc1ncc(C[n+]2csc(CCO)c2C)c(N)n1 [thiamine] | – | up to 2 weeks | effective in reducing mosquito bites
